Experimental data published in patent publication US8106062B1, “Calcium channel blockers” (Diakron Pharmaceuticals, Inc., priority 2003, dated 2012).

How the values were obtained:
[1] = target: T1, T-type calcium channels (α1G) (Homo sapiens, UniProt O43497); assay: Patch-clamp assay for T-channel blockage in HEK cells; type: cell-based; conditions: time course of T-channel blockage, 500 nM and 1 uM, preliminary numbers
T1 construct: expressed in transfected cells
Procedure: Specifically, individual HEK cells were tested in vitro using a patch-clamp assay for T-channel blockage. Tests were performed at concentrations of 500 nM and 1 uM, and the time course of the blockage was followed for a period of several minutes.
In the past, patch clamp assays for T-channel activity would measure inhibition of calcium-ion-mediated current over the course of only a few minutes, e.g., 2, 3, or 5 minutes. […] The assays described herein can be used to differentiate between conventional-type T-channel blockers, which usually show a time constant of blockage of a few seconds, and the long-acting T-channel blockers, which show time constants between 1 minute and 2, 4, 5, 10 or more minutes. It is the latter group of compounds that is particularly interesting and useful in the present invention.
T-type calcium channels (α1G) were stably expressed in HEK293 cells and maintained at 37° C. in DMEM. Cells were released from dishes using trypsin and EGTA or Accutase and studied within 4 hours of isolation. Individual cells were placed on the stage of an inverted microscope and patched with pipettes pulled from aluminasilicate glass capillary tubes, which had resistances of 0.8-1.5 Mohm. Currents were recorded using an Axopatch 200 (Axon Instruments, Inc.) and pClamp data acquisition software (8.1). The pipette solution contained (in mM): KCl 130, EGTA 11, HEPES 10, MgATP 5, pH=7.4. The bath solution contained (in mM): NaCl 140, CaCl2 1, HEPES 10, pH=7.4. Test compounds were diluted into bath solution to the desired concentration (100 nM-10 μM) from a stock solutions (3 or 10 mM in DMSO). Current measurements were made at 20-23° C. Cells were held at −110 mV in order to maximize occupancy in the closed state and depolarized for 100 ms to various potentials. Currents were capacity corrected using 16-64 subthreshold responses (voltage steps of 10 or 20 mV) and leak subtracted, based on linear interpolation between the current at the holding potential and 0 mV. Cells were moved from a control chamber to a chamber with test compound and the effect of the drug was assessed using a voltage clamp protocol that stepped to −30 mV for 100 ms from a holding potential of −110 mV once every 5 s. After each 10-13 minutes, the train protocol was interrupted and a full current voltage relationship obtained. In general for each compound, four cells were studied for a minimum of 13 minutes, two in drug at 500 nM and two at 1 μM. In some cases other concentrations were also studied. Data were analyzed using Matlab (Mathworks, Natick, Mass.). Drug efficacy was estimated using the relationship: Blocked Fraction=[Drug]/(IC50+[Drug])
The time course of block by drug was fit to a single exponential function: Peak Current=A*exp(−t/τ)+B where A is the initial amplitude of the current, B the final level, t the time after the cell was exposed to drug, and τ, the time constant, i.e. the time it took for the current to be reduced to within 1/e of its final value, B. In general, modification τs are influenced both by drug on rate and off rate, although washout was achievable for only one compound, so off rates are so slow (small) that T can be taken to essentially represent 1/kon. For some compounds despite the presence of the drug in the chamber, modification occurred with a delay. This was quantified from the time modification was first observed. […]

[2] = tested on: spontaneously hypertensive rats; conditions: 30 mg/Kg oral, cited from earlier work
[3] = tested on: spontaneously hypertensive rats; assay: Systolic blood pressure (tail cuff) in spontaneously hypertensive rats after IV tail injection; type: in vivo, rat; conditions: SHR
Procedure: In addition to the referenced in vitro studies, in vivo studies have also been conducted. The in vivo hypertension model used here involves administration of compound to spontaneously hypertensive rats through IV tail injection of compound. Systolic blood pressure is then measured using a tail cuff.
Fifteen male spontaneously hypertensive rats (SHR) were used in these studies. The animals were 12 weeks old at arrival and 15 weeks old at the start of study. The animals were divided into five groups, with three animals in each group. The starting, baseline systolic blood pressure for all animals included in the study was 190-220 mmHg. The animals were housed in contact bedding. They were fed Purina 5008. Six days after arrival, the animals were trained in the blood pressure apparatus for four days before the start of the study.
Compounds were administered to the animals by tail vein injection. Dose levels were 0.5 mL. In each study, one group of animals served as control, while the others were injected with a dosage of a compound.
The study was conducted using the schedule set forth below: […]

[4] = multiple dose study, three injections spaced about 25 hours apart, FIG. 2
[5] = single dose 20 mg/Kg, IV tail injection, FIG. 1

T1 sequence (O43497 whole entry): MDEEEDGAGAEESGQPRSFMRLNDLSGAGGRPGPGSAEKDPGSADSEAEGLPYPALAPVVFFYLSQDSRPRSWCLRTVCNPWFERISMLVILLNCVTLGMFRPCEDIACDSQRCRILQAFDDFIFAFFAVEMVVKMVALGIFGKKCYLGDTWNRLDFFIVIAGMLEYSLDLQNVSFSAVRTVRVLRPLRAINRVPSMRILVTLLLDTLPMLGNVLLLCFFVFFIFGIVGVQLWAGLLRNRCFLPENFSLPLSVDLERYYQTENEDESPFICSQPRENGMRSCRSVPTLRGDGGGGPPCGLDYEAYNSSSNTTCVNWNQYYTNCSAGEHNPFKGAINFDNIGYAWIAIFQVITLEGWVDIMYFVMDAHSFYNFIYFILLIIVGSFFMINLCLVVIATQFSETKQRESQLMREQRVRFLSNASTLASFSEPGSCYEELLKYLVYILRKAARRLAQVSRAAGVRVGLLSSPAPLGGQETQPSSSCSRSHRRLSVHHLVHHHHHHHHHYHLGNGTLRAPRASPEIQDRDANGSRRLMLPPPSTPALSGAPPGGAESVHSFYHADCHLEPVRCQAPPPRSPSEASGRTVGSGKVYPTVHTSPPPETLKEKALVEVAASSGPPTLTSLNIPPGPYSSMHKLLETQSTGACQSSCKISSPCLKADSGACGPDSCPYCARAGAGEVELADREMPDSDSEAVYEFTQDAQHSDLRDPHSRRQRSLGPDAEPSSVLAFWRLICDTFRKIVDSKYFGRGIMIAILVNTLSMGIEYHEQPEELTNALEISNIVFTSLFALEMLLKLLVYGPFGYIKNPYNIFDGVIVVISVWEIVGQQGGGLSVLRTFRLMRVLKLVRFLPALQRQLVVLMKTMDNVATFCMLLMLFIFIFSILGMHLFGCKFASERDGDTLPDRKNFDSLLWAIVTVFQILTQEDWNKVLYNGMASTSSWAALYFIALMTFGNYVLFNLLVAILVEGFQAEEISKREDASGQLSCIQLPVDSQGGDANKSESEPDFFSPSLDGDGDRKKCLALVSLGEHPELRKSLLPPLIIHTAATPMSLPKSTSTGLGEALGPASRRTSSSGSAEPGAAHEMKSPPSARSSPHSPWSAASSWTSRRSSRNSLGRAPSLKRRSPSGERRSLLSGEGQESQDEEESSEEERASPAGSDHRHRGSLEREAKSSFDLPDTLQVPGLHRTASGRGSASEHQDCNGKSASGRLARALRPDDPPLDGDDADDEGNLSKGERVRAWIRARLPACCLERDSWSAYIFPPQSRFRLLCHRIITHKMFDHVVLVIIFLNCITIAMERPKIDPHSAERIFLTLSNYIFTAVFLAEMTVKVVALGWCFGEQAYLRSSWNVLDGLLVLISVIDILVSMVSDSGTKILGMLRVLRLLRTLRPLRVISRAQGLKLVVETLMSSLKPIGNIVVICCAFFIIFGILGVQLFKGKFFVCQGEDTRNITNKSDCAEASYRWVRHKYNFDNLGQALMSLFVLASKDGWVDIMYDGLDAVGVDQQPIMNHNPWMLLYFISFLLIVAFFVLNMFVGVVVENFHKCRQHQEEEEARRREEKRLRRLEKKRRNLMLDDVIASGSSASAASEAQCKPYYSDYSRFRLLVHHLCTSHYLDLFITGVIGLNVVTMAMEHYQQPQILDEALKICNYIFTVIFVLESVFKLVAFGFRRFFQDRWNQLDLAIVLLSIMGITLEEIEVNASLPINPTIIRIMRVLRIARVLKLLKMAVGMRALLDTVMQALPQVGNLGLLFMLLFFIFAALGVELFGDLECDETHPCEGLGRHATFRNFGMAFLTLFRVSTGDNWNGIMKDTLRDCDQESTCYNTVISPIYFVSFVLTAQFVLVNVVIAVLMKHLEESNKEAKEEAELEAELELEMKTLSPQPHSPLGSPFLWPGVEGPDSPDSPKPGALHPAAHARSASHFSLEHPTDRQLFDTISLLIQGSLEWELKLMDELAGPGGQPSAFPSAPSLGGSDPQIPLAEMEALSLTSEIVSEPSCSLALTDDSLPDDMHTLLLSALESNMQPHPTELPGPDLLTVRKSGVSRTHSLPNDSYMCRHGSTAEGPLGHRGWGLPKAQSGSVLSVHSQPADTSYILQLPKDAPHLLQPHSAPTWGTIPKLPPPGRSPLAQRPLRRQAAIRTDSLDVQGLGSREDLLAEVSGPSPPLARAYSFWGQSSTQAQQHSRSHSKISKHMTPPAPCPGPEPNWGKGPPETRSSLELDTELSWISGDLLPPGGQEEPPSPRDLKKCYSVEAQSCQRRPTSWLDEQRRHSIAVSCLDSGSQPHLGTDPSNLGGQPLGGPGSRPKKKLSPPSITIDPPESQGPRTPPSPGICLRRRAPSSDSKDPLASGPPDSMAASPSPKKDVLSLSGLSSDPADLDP

## 3,6-dihydro-4-methyl-6-[2-ethoxy-6-pentadecylphenyl]-2-oxo-1,5-(2H)-pyrimidinedicarboxylic acid 1-ethyl 5-isopropyl diester [PPK35]
[1]
  Time constant: 10 min

## COCC(=O)O[C@]1(CCN(C)CCCc2nc3ccccc3[nH]2)CCc2cc(F)ccc2[C@@H]1C(C)C [Mibefradil]
[2]; FIG. 1
  systolic blood pressure drop in the first 5 hours: about 85 mmHg
  systolic blood pressure recovery by the end of 24 hours: about 45 mmHg
[2]; FIG. 2
  rapid drop of blood pressure: 85 mmHg
  recovery of blood pressure within 24 hours of administration: more than 50%

## CCCCCCCCCCCCCCCc1cccc(OC(C)C)c1C1C(C(=O)OC)=C(C)NC(C)=C1C(=O)OC [PPK5, dimethyl 1,4-dihydro-4-(2′-isopropoxy-6′-pentadecylphenyl)-2,6-dimethyl-3,5-pyridine dicarboxylate]
[3]; [4]
  additional blood pressure drop after the second injection: ~12 mmHg
  blood pressure drop after first injection: about 55 mmHg
[3]; single dose 20 mg/Kg, IV tail injection
  time systolic pressure remained at the reduced level: > 24 h
[3]; [5]
  systolic pressure drop in the first 5 hours: about 48 mmHg
  systolic pressure drop in the first 10 hours: about 55 mmHg
[1]
  Time constant: 8 min

## CCCCCCCCCCCCCCCc1cccc(OC)c1C1NC(=O)NC(C)=C1C(=O)OCC (centres unmarked) [PPK22, 5-ethoxycarbonyl-4-(2-methoxy-6-pentadecylphenyl)-6-methyl-3,4-dihydropyrimidin-2(1H)-one]
[1]
  Time constant: 1 min

## CCCCCCCCCCCCCCCc1cccc(OCC)c1C1C(C(=O)OCC)=C(C)NC(=S)N1C(=O)CC (centres unmarked) [PPK50, 1,2,3,4-tetrahydro-6-methyl-4-[2-ethoxy-6-pentadecylphenyl]-3-(1-oxo-propyl)2-thioxo-5-pyrimidine carboxylic acid ethyl ester]
[1]
  Time constant: 10 min

## CCCCCCCCCCCCCCCc1cccc(OC(C)C)c1C1C(C(=O)OCC)=C(C)NC(=S)N1C(=O)CC (centres unmarked) [PPK51, 1,2,3,4-tetrahydro-6-methyl-4-[2-isopropoxy-6-pentadecylphenyl]-3-(1-oxo-propyl)2-thioxo-5-pyrimidine carboxylic acid ethyl ester]
[1]
  Time constant: 13 min
